Consider two compounds from patent US20090131443A1, “METHOD FOR PREVENTION AND/OR TREATMENT OF RHEUMATOID ARTHRITIS” (Kowa Co., Ltd., priority 2005, published 2009).

The test deals with rats of a collagen-induced arthritis model. In words: Both-hindlimb edema suppression in rats of a collagen-induced arthritis model. The following applies: solo administration; for Edema Index: mean ± standard error, control group 6.85 ± 0.33; for Percent edema suppression: vs control group. It counts as in vivo, Lewis female rats (LEW/Crj). The protocol: The effect on suppressing both-hindlimb edema of 2-benzyl-5-(4-chlorophenyl)-6-[4-(methylthio)phenyl]-2H-pyridazin-3-one (synthesized through the aforementioned method) and that of tacrolimus (Prograf (injection: 5 mg), product of Fujisawa Pharmaceutical Co., Ltd.) were determined both in the cases of combined administration and solo administration through the following procedure (by use of rats of a collagen-induced arthritis model) (FDA, CBER, CDER, CDRH: Guidance for industry—Clinical development programs for drugs, devices, and biological products for the treatment of rheumatoid arthritis (RA)—. (1999)). Lewis female rats (LEW/Crj) (obtained from Charles River Laboratories Japan, Inc.) were employed as test animals.
For each 8-week-old LEW/Crj rat, the volume of a portion from the ankle to the toe tip of each hindlimb was measured by means of a plethysmometer for small animals (TK-101CMP, product of Unicom), and a total of the two volumes was employed as a volume of the hindlimbs (hereinafter referred to as both-hindlimb volume) at the start of the test (hereinafter referred to as Pre value). By use of the Pre value as an index, the rats were divided into groups which are alike from group to group, through one-parameter-based block randomization.
The collagen emulsion for sensitization employed for inducing arthritis in rats was prepared by homogenizing a 0.3% Type II collagen liquid (product of Collagen Research Center), adjuvant peptide (product of Peptide Institute, Inc.), and adjuvant incomplete Freund (product of DIFCO) by means of a Handy Micro Homogenizer (product of Microtec Nition) under cooling with ice. The thus-prepared emulsion was intracutaneously injected to 10 sites in the dorsum of each rat at 0.1 mL/site, to thereby initially sensitize the rat. Seven days after initial sensitization, the same emulsion (0.12 mL) was intracutaneously injected to the tail head of the rat for booster sensitization.
Administration of one drug or two drugs was carried out the day after initial sensitization to day 26. To the 2-benzyl-5-(4-chlorophenyl)-6-[4-(methylthio)phenyl]-2H-pyridazin-3-one solo administration group, the drug was orally administered twice; in the morning (9:00 to 11:00) and in the evening (15:30 to 17:30) at a dose of 3 mg/kg. To the tacrolimus sole administration group, the drug was orally administered once in the afternoon (11:30 to 13:30) at a dose of 0.1, 0.3, or 1 mg/kg. To the combined administration group (2-benzyl-5-(4-chlorophenyl)-6-[4-(methylthio)phenyl]-2H-pyridazin-3-one and tacrolimus), 2-benzyl-5-(4-chlorophenyl)-6-[4-(methylthio)phenyl]-2H-pyridazin-3-one was orally administered in the morning (9:00 to 11:00) and in the evening (15:30 to 17:30) at a dose of 3 mg/kg, and tacrolimus was orally administered in the afternoon (11:30 to 13:30) at a dose of 0.3 mg/kg.
14 days, 18 days, 22 days, and 26 days after initial sensitization, both-hindlimb volume was measured. Volume of both-hindlimb edema was calculated by subtracting the Pre value from the thus-measured value.
Table 1 and FIG. 1 show Edema Index of the groups of rats, the groups being the 2-benzyl-5-(4-chlorophenyl)-6-[4-(methylthio)phenyl]-2H-pyridazin-3-one solo administration group, the tacrolimus solo administration group, and the combined administration group. The Edema Index of each group is an average of the indices obtained from 6 to 12 rats ±a standard error. Percent edema suppression represents a value obtained from the relationship:
100×[(average both-hindlimb edema volume of the control group)−(average both-hindlimb edema volume of each administration group)]/(average both-hindlimb edema volume of the control group). Relative factor represents a ratio of (average both-hindlimb edema volume of each administration group)/(average both-hindlimb edema volume of the control group).

`C=CC[C@@H]1/C=C(\C)C[C@H](C)C[C@H](OC)[C@H]2O[C@@](O)(C(=O)C(=O)N3CCCC[C@H]3C(=O)O[C@H](/C(C)=C/[C@@H]3CC[C@@H](O)[C@H](OC)C3)[C@H](C)[C@@H](O)CC1=O)[C@H](C)C[C@@H]2OC` [Tacrolimus, tacrolimus]: the “Edema Index” value runs as follows: (0.1 mg/kg orally once daily, day 1 to day 26) 6.75 ± 0.31 mL; (0.3 mg/kg orally once daily, day 1 to day 26) 6.09 ± 0.30 mL; (1 mg/kg orally once daily, day 1 to day 26) 5.04 ± 0.20 mL. For the same compound, the Relative factor reads like this: (0.1 mg/kg orally once daily, ratio to control group) 0.99; (0.3 mg/kg orally once daily, ratio to control group) 0.89; (1 mg/kg orally once daily, ratio to control group) 0.74. Further, the Percent edema suppression was 1% (0.1 mg/kg orally once daily), 11% (0.3 mg/kg orally once daily) and 26% (1 mg/kg orally once daily). Moreover, under “up to 1 mg/kg”, the “Edema Index suppression effect (in words)” value was “do not result in potent Edema Index suppression effects”.

For the compound `CSc1ccc(-c2nn(Cc3ccccc3)c(=O)cc2-c2ccc(Cl)cc2)cc1` [2-benzyl-5-(4-chlorophenyl)-6-[4-(methylthio)phenyl]-2H-pyridazin-3-one], the “Edema Index suppression effect (in words)” value (3 mg/kg) was “do not result in potent Edema Index suppression effects”. Further, the “Edema Index” value (3 mg/kg orally twice daily, day 1 to day 26 after initial sensitization, sum of both-hindlimb edema volumes at days 14, 18, 22, 26) is 5.58 ± 0.63 mL. In addition, the Relative factor (3 mg/kg orally twice daily, ratio of group average edema volume to control group) came out at 0.81. Also, the Percent edema suppression (3 mg/kg orally twice daily) came to 19%.
